Results reported in patent US20150094354A1, “METHOD FOR TREATING CELL PROLIFERATIVE DISORDER BY INHIBITING C1GALT1 EXPRESSION” (National Taiwan University, priority 2013, published 2015).

What was measured:
HCC36 cells = test: Trypan blue exclusion assay of C1GALT1-enhanced cell viability with MET inhibitor; assay type: cell-based, human; conditions: HCC36, C1GALT1 overexpression, 72 hours
Method: (§1) Cells (4×10^4) are seeded in each well of 6-well plates with DMEM containing 10% FBS. Viable cells are analyzed by Trypan blue exclusion assay at 0, 24, 48, and 72 hours. Cell proliferation is evaluated by immunostaining with anti-Ki67 antibody (1:1000; Vector Laboratories). For cell-cycle analysis, 1×10^6 cells are stained with propidium iodide (Sigma) for 30 minutes. The percentages of cells in G1, S, and G2M phases are analyzed by flow cytometry (Becton Dickinson). […] Data are represented as means±SD from three independent experiments (** refers to P<0.01).

Sk-Hep1 cells = test: as above; assay type: cell-based, human; conditions: Sk-Hep1, C1GALT1 overexpression, 72 hours
Method: as §1

C1GALT1 [1] = test: FITC-VVA FACS analysis of Tn antigen accumulation in T47D breast cancer cells; assay type: cell-based, human; conditions: mock and C1GALT1 overexpressed T47D transfectants, itraconazole 10 ug/ml
Method: (§2) FIGS. 86A-86D are graphs illustrating that itraconazole impairs C1GALT1 function leading to the accumulation of Tn antigen expression in breast cancer cells in accordance with an embodiment of the present invention. […] After itraconazole treatment, cells are detached with 5 mM EDTA. Afterwards, FITC conjugated Vicia villosa agglutinin (VVA), lectin specifically recognizing Tn antigen, is applied for analysis with a fluoresencce-activated cell sorting (FACS) system. A right-shift of the VVA peak indicates the accumulation of Tn antigens. […] After itraconazole treatment, cells are detached with 5 mM EDTA and treated with or without 10 mU/ml neuraminidase to unmask the effects of sialylated O-glycans. After treatment with neuraminidase, FITC conjugated Vicia villosa agglutinin (VVA), lectin specifically recognizing Tn antigen, is applied for analysis with a fluoresencce-activated cell sorting (FACS) system. […] To confirm whether the peak shift is a result of impaired C1GALT1 function, mock and C1GALT1 overexpressed T47D cells are analyzed. […] Overexpression of C1GALT1 results in a left-shift of the VVA peak in itraconazole-untreated transfectants, indicating intact C1GALT1 function in depleting Tn antigens as substrates for T antigen synthesis.

HCC36 cell lines = test: MTT cell growth assay, liver cancer cells; assay type: cell-based, human; design: dose or concentration left out as unconfirmed; conditions: HCC36, itraconazole for 5 days, compared with control (DMSO)
Method: (§3) FIG. 88C is a schematic diagram illustrating that itraconazole suppresses liver cancer cell growth in accordance with an embodiment of the present invention. To determine whether impairing C1GALT1 function affects liver cancer cell malignant phenotypes, the effects of itraconazole on liver cancer cell growth are analyzed by MTT cell growth assay in HCC36 cell lines. Cells (3×10^3) are seeded into 96-well microtitre plates and treated with DMSO (control) or itraconazole 10 µg/ml for 5 days at 37° C. under 5% CO2 atmosphere. Results from two independent experiments are presented as mean±SD and analyzed with student's t-test, *p<0.05 and **p<0.01.

T47D cell lines = test: MTT cell growth assay, breast cancer cells (itraconazole); assay type: cell-based, human; design: dose or concentration left out as unconfirmed; conditions: itraconazole for 5 days, compared with control (DMSO)
Method: as §3, with “88B” for “88C”, “breast” for “liver”, “T47D” for “HCC36”

CL1-5 cell lines = test: MTT cell growth assay, lung cancer cells; assay type: cell-based, human; design: dose or concentration left out as unconfirmed; conditions: CL1-5, itraconazole for 5 days, compared with control (DMSO)
Method: as §3, with “88A” for “88C”, “lung” for “liver”, “CL1-5” for “HCC36”

C1GALT1 [2] = target: T1, C1GALT1 (Homo sapiens, UniProt Q9NS00); test: FITC-VVA FACS analysis of Tn antigen accumulation in HCC36 liver cancer cells; assay type: cell-based; design: endogenous in cells; conditions: for VVA peak shift (accumulation of Tn antigens): itraconazole 10 ug/ml
From the text: According to another embodiment of the present invention, in the experiment in vitro, itraconazole, a small molecular drug, is used as the C1GALT1 inhibition substance. Itraconazole is an FDA approved drug that is clinically employed as an antimicrobial for the treatment of fungal, mycosis, and candida infections. The inventors of the present invention discovered that the structure of itraconazole is suitable for binding to the catalytic domain of C1GALT1 and inhibiting C1GALT1. Cells are cultured in DMEM with 10% FBS and treated with itraconazole 10 ug/ml for 3 days at 37° C. under 5% CO2.
as §2, with “FIGS. 87A-87D are graphs” for “FIGS. 86A-86D are graphs”, “leading to accumulation of” for “leading to the accumulation of”, “expression in […] cancer cells” for “expression in breast cancer cells”, “right-shift of VVA peak” for “right-shift of the VVA peak”, “C1GALT1 overexpressed HCC36 cells are” for “C1GALT1 overexpressed T47D cells are”, “results in left-shift of” for “results in a left-shift of”
Target sequence in this assay (Q9NS00 whole entry, the tested form may be a part): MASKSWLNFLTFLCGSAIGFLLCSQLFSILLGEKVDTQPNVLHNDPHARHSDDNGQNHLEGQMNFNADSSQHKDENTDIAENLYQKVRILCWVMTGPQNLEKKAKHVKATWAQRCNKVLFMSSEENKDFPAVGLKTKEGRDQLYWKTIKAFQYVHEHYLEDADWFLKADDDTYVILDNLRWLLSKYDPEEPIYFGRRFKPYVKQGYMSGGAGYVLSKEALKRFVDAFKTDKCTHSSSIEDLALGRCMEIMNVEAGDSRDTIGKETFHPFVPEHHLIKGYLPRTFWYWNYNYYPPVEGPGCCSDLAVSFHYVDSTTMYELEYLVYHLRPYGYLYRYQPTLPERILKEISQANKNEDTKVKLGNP

C1GALT1 [3] = target: T1, C1GALT1; test: FITC-VVA FACS analysis of Tn antigen accumulation in CL1-5 lung cancer cells; assay type: cell-based; design: endogenous in cells; conditions: for VVA peak shift (accumulation of Tn antigens): itraconazole 10 ug/ml
Method: as §2, with “85A-85D” for “86A-86D”, “lung” for “breast”, “indicates” for “indicates the”, “CL1-5” for “T47D”, “itraconazole untreated” for “itraconazole-untreated”
Target sequence in this assay (Q9NS00 whole entry, the tested form may be a part): as above

C1GALT1 [4] = target: T1, C1GALT1; test: FITC-VVA FACS analysis of Tn antigen accumulation in T47D breast cancer cells; assay type: cell-based; design: endogenous in cells; host or cells: T47D breast cancer cells
Method: as §2

Structure (SMILES): Cc1[nH]c(/C=C2\C(=O)Nc3ccc(S(=O)(=O)Cc4c(Cl)cccc4Cl)cc32)c(C)c1C(=O)N1CCC[C@@H]1CN1CCCC1 [PHA665752]
- C1GALT1-enhanced cell viability (HCC36 cells): significantly inhibited
- C1GALT1-enhanced cell viability (Sk-Hep1 cells): significantly inhibited

Structure (SMILES): CCC(C)n1ncn(-c2ccc(N3CCN(c4ccc(OCC5COC(Cn6cncn6)(c6ccc(Cl)cc6Cl)O5)cc4)CC3)cc2)c1=O (centres unmarked) [itraconazole]
- VVA peak shift (accumulation of Tn antigens) (C1GALT1 [1]): major right-shift of the VVA peaks
- liver cancer cell growth (HCC36 cell lines): significantly suppressed
- breast cancer cell growth (T47D cell lines): significantly suppressed
- lung cancer cell growth (CL1-5 cell lines): significantly suppressed
- VVA peak shift (accumulation of Tn antigen substrates) (C1GALT1 [2]; C1GALT1 overexpressed HCC36 cells, sialylated O-glycans unmasked by neuraminidase): major peak shifts to the right
- VVA peak shift (accumulation of Tn antigens) (C1GALT1 [2]; HCC36 parental cells, regardless of sialylated O-glycans): right shift of the VVA peak
- VVA peak shift (accumulation of Tn antigens) (C1GALT1 [2]; mock and C1GALT1 overexpressed HCC36 transfectants): major right-shift of the VVA peaks
- VVA peak shift (accumulation of Tn antigen substrates) (C1GALT1 [3]; C1GALT1 overexpressed CL1-5 cells, sialylated O-glycans unmasked by neuraminidase): major peak shifts to the right
- VVA peak shift (accumulation of Tn antigens) (C1GALT1 [3]; CL1-5 parental cells, regardless of sialylated O-glycans): right shift of the VVA peak
- VVA peak shift (accumulation of Tn antigens) (C1GALT1 [3]; mock and C1GALT1 overexpressed CL1-5 transfectants): major right-shift of the VVA peaks
- VVA peak shift (accumulation of Tn antigen substrates) (C1GALT1 [4]; C1GALT1 overexpressed T47D cells, sialylated O-glycans unmasked by neuraminidase): major peak shifts to the right
- VVA peak shift (accumulation of Tn antigens) (C1GALT1 [4]; T47D parental cells, itraconazole 10 ug/ml, regardless of sialylated O-glycans): right shift of the VVA peak
